Results: publication PMC12410356 (International Journal for Parasitology: Drugs and Drug …, 2025)

Tested on: E. multilocularis metacestode vesicles
Test: Phosphoglucose isomerase (PGI) release assay (damage-marker release) on metacestode vesicles
Format: cell-based, Echinococcus multilocularis
Details: overview screen, 10 μM, singlets, 5 days, relative to 0.1 % Triton X-100, DMSO subtracted

Row | Structure (SMILES) | PGI d5 (relative PGI release) [%]
1 | Cc1[nH]c2ccccc2c1CCNCc1ccc(/C=C/C(=O)NO)cc1 [MMV010036] | 1.148
2 | NC[C@H]1OB(O)c2c(OCCCO)cccc21 [MMV1578566] | 0.6057
3 | CC(C)Oc1ccc(-n2cnc3cc(/C=C\c4ccc(C(C)(C)O)cc4)ccc32)cc1 [MMV1782350] | -0.1916
4 | Nc1nc(N)c2c(Sc3ccccc3)cccc2n1 [MMV021759] | -5.79
5 | Cl.Cl.NCCCc1ccccc1C(=O)Nc1ncc([N+](=O)O)s1 [MMV1579786] | -0.3411
6 | CC(C)CCN1C(=O)C(C2=NS(=O)(=O)c3cc(NS(C)(=O)=O)ccc3N2)=C(O)[C@@H]2[C@H]3CC[C@H](C3)[C@@H]21 [MMV1782220] | 0.5402
7 | CC(=O)N1CCN(c2ccc(OC[C@@H]3CO[C@@](Cn4ccnc4)(c4ccc(Cl)cc4Cl)O3)cc2)CC1 [MMV637533] | 1.26
8 | Cc1cc(C)n(O)c(=O)c1 [MMV1782389] | -2.677
9 | O=c1cc(Nc2ccc3ccccc3c2)[nH]c(=O)[nH]1 [MMV1581546] | -1.553
10 | CCCCCCCCCN1C[C@@H](O)[C@H](O)[C@@H](O)[C@@H]1CO [MMV1593513] | -0.861
11 | C[C@@H](c1nc(-c2ccc(C#N)cc2)cs1)[C@](O)(Cn1cncn1)c1ccc(F)cc1F [MMV1634362] | -1.682
12 | O=C1NC(=S)N/C1=C\c1cc(Br)cc(Br)c1O [MMV1578569] | 1.516
13 | CCc1cc(O)c(Oc2cccnc2N)cc1F [MMV1580854] | -1.596
14 | O=S(=O)(Nc1ccc(O)cc1)c1cccc2cccnc12 [MMV251679] | 0.1251
15 | Fc1ccc2c(/C=C/c3nnn[nH]3)c[nH]c2c1 [MMV1578563] | -0.5513
16 | C/C(=N\NC(=O)C1CC1c1ccccc1)c1ccc(NC(=O)c2ccco2)cc1 (stereo not drawn) [MMV1580487] | -1.203
17 | NC(=O)c1ccccc1NC(=O)c1ccc(C(=O)Nc2ccccc2C(N)=O)cc1 [MMV508427] | -1.548
18 | Cc1ccccc1NC(=O)Nc1cccc([N+](=O)[O-])c1 [MMV1581029] | 1.329
19 | CN1CCN(Cc2ccc(-c3cnc4[nH]cc(-c5ccc6[nH]ccc6c5)c4c3)cc2)CC1 [MMV1580482] | 0.2177
20 | CC(C)(C)NC(=O)N[C@H](C(=O)N1C[C@H]2[C@@H]([C@H]1C(=O)NC(CC1CCC1)C(=O)C(N)=O)C2(C)C)C(C)(C)C (stereo partly drawn) [MMV1580497] | 0.3266
21 | O=C(NC(=O)N1CCCc2ccccc21)c1cccc(Cl)c1 [MMV1782351] | -2.457
22 | Cn1cncc1[C@@](N)(c1ccc(Cl)cc1)c1ccc2c(c1)c(-c1cccc(Cl)c1)cc(=O)n2C [MMV658803] | 0.7883

Same assay, conditions: overview screen, 10 μM, singlets, 12 days, relative to 0.1 % Triton X-100, DMSO subtracted

Row | Structure (SMILES) | PGI d12 (relative PGI release) [%]
23 | Cc1[nH]c2ccccc2c1CCNCc1ccc(/C=C/C(=O)NO)cc1 [MMV010036] | -1.326
24 | NC[C@H]1OB(O)c2c(OCCCO)cccc21 [MMV1578566] | -3.009
25 | CC(C)Oc1ccc(-n2cnc3cc(/C=C\c4ccc(C(C)(C)O)cc4)ccc32)cc1 [MMV1782350] | 0.3132
26 | Nc1nc(N)c2c(Sc3ccccc3)cccc2n1 [MMV021759] | -12.5973
27 | Cl.Cl.NCCCc1ccccc1C(=O)Nc1ncc([N+](=O)O)s1 [MMV1579786] | -16.376
28 | CC(C)CCN1C(=O)C(C2=NS(=O)(=O)c3cc(NS(C)(=O)=O)ccc3N2)=C(O)[C@@H]2[C@H]3CC[C@H](C3)[C@@H]21 [MMV1782220] | 0.853
29 | CC(=O)N1CCN(c2ccc(OC[C@@H]3CO[C@@](Cn4ccnc4)(c4ccc(Cl)cc4Cl)O3)cc2)CC1 [MMV637533] | -24.3929
30 | Cc1cc(C)n(O)c(=O)c1 [MMV1782389] | -25.4049
31 | O=c1cc(Nc2ccc3ccccc3c2)[nH]c(=O)[nH]1 [MMV1581546] | -12.1764
32 | CCCCCCCCCN1C[C@@H](O)[C@H](O)[C@@H](O)[C@@H]1CO [MMV1593513] | -3.193
33 | C[C@@H](c1nc(-c2ccc(C#N)cc2)cs1)[C@](O)(Cn1cncn1)c1ccc(F)cc1F [MMV1634362] | -23.6483
34 | O=C1NC(=S)N/C1=C\c1cc(Br)cc(Br)c1O [MMV1578569] | -5.575
35 | CCc1cc(O)c(Oc2cccnc2N)cc1F [MMV1580854] | -13.7258
36 | O=S(=O)(Nc1ccc(O)cc1)c1cccc2cccnc12 [MMV251679] | -17.8593
37 | Fc1ccc2c(/C=C/c3nnn[nH]3)c[nH]c2c1 [MMV1578563] | -11.8723
38 | C/C(=N\NC(=O)C1CC1c1ccccc1)c1ccc(NC(=O)c2ccco2)cc1 (stereo not drawn) [MMV1580487] | -0.8271
39 | NC(=O)c1ccccc1NC(=O)c1ccc(C(=O)Nc2ccccc2C(N)=O)cc1 [MMV508427] | -12.1939
40 | Cc1ccccc1NC(=O)Nc1cccc([N+](=O)[O-])c1 [MMV1581029] | -16.6439
41 | CN1CCN(Cc2ccc(-c3cnc4[nH]cc(-c5ccc6[nH]ccc6c5)c4c3)cc2)CC1 [MMV1580482] | 0.07079
42 | CC(C)(C)NC(=O)N[C@H](C(=O)N1C[C@H]2[C@@H]([C@H]1C(=O)NC(CC1CCC1)C(=O)C(N)=O)C2(C)C)C(C)(C)C (stereo partly drawn) [MMV1580497] | 69.2218
43 | O=C(NC(=O)N1CCCc2ccccc21)c1cccc(Cl)c1 [MMV1782351] | -24.682
44 | Cn1cncc1[C@@](N)(c1ccc(Cl)cc1)c1ccc2c(c1)c(-c1cccc(Cl)c1)cc(=O)n2C [MMV658803] | -2.529

Tested on: E. multilocularis metacestode vesicles
Test: Metacestode vesicle viability assay (ATP, CellTiter-Glo)
Format: cell-based, Echinococcus multilocularis
Details: 10 µM
Description: Viability was assessed after 12 days using the same metacestode vesicles as for the PGI release assay. Triton X-100 was added to each well to a final concentration of 0.1 %. Subsequently the metacestode vesicles were broken mechanically and 50 μL of the supernatant was mixed with 50 μL of CellTiter-Glo® buffer (Promega, Dübendorf, Switzerland). Measurements were performed on a HIDEX Sense microplate reader.

Row | Structure (SMILES) | Viability d12 (relative viability) [%]
45 | C[C@@H](c1nc(-c2ccc(C#N)cc2)cs1)[C@](O)(Cn1cncn1)c1ccc(F)cc1F [MMV1634362] | 103.703

Same assay, conditions: overview screen, 10 μM, singlets, 12 days, relative to DMSO control

Row | Structure (SMILES) | Viability d12 (relative viability) [%]
46 | Cc1[nH]c2ccccc2c1CCNCc1ccc(/C=C/C(=O)NO)cc1 [MMV010036] | 57.5391
47 | NC[C@H]1OB(O)c2c(OCCCO)cccc21 [MMV1578566] | 7.765
48 | CC(C)Oc1ccc(-n2cnc3cc(/C=C\c4ccc(C(C)(C)O)cc4)ccc32)cc1 [MMV1782350] | 72.1416
49 | Nc1nc(N)c2c(Sc3ccccc3)cccc2n1 [MMV021759] | 37.4067
50 | Cl.Cl.NCCCc1ccccc1C(=O)Nc1ncc([N+](=O)O)s1 [MMV1579786] | 116.729
51 | CC(C)CCN1C(=O)C(C2=NS(=O)(=O)c3cc(NS(C)(=O)=O)ccc3N2)=C(O)[C@@H]2[C@H]3CC[C@H](C3)[C@@H]21 [MMV1782220] | 132.239
52 | CC(=O)N1CCN(c2ccc(OC[C@@H]3CO[C@@](Cn4ccnc4)(c4ccc(Cl)cc4Cl)O3)cc2)CC1 [MMV637533] | 224.858
53 | Cc1cc(C)n(O)c(=O)c1 [MMV1782389] | 156.473
54 | O=c1cc(Nc2ccc3ccccc3c2)[nH]c(=O)[nH]1 [MMV1581546] | 58.2809
55 | CCCCCCCCCN1C[C@@H](O)[C@H](O)[C@@H](O)[C@@H]1CO [MMV1593513] | 80.9399
56 | O=C1NC(=S)N/C1=C\c1cc(Br)cc(Br)c1O [MMV1578569] | 64.4597
57 | CCc1cc(O)c(Oc2cccnc2N)cc1F [MMV1580854] | 45.6729
58 | O=S(=O)(Nc1ccc(O)cc1)c1cccc2cccnc12 [MMV251679] | 83.9227
59 | Fc1ccc2c(/C=C/c3nnn[nH]3)c[nH]c2c1 [MMV1578563] | 20.2898
60 | C/C(=N\NC(=O)C1CC1c1ccccc1)c1ccc(NC(=O)c2ccco2)cc1 (stereo not drawn) [MMV1580487] | 105.695
61 | NC(=O)c1ccccc1NC(=O)c1ccc(C(=O)Nc2ccccc2C(N)=O)cc1 [MMV508427] | 83.3301
62 | Cc1ccccc1NC(=O)Nc1cccc([N+](=O)[O-])c1 [MMV1581029] | 89.4166
63 | CN1CCN(Cc2ccc(-c3cnc4[nH]cc(-c5ccc6[nH]ccc6c5)c4c3)cc2)CC1 [MMV1580482] | 108.591
64 | CC(C)(C)NC(=O)N[C@H](C(=O)N1C[C@H]2[C@@H]([C@H]1C(=O)NC(CC1CCC1)C(=O)C(N)=O)C2(C)C)C(C)(C)C (stereo partly drawn) [MMV1580497] | 40.5469
65 | O=C(NC(=O)N1CCCc2ccccc21)c1cccc(Cl)c1 [MMV1782351] | 118.649
66 | Cn1cncc1[C@@](N)(c1ccc(Cl)cc1)c1ccc2c(c1)c(-c1cccc(Cl)c1)cc(=O)n2C [MMV658803] | 92.252
